# Patent US8410112B2, “Compounds useful as inhibitors of ATR kinase” (Vertex Pharmaceuticals Incorporated, priority 2008, dated 2013)
# Target: T1, full-length ATR (Homo sapiens, UniProt Q13535)
# T1 construct: in the presence of 5 nM full-length ATR
# Test: ATR Inhibition Assay (radioactive-phosphate incorporation)
# Format: biochemical
# Conditions: Ki(app); 5 nM full-length ATR, 10 μM ATP, 800 μM target peptide, 25° C.
# Method: Test compounds were screened for their ability to inhibit ATR kinase using a radioactive-phosphate incorporation assay. Assays were carried out in a mixture of 50 mM
# Tris/HCl (pH 7.5), 10 mM MgCl2 and 1 mM DTT. Final substrate concentrations were 10 μM [γ-33P]ATP (3 mCi 33 P ATP/mmol ATP, Perkin Elmer) and 800 μM target peptide ([…]). Assays were carried out at 25° C. in the presence of 5 nM full-length ATR. An assay stock buffer solution was prepared containing all of the reagents listed above, with the exception of ATP and the test compound of interest. […] The plate was pre-incubated for 10 minutes at 25° C. and the reaction initiated by addition of 15 μL [γ-33P]ATP (final concentration 10 μM).
# The reaction was stopped after […] by the addition of 30 μL 0.1M phosphoric acid containing 2 mM ATP. A multiscreen phosphocellulose filter 96-well plate (Millipore, Cat no. MAPHN0B50) was pretreated with 100 μL 0.2M phosphoric acid prior to the addition of 45 μL of the stopped assay mixture. The plate was washed with 5×200 μL 0.2M phosphoric acid.
# After removing mean background values for all of the data points, Ki(app) data were calculated from non-linear regression analysis of the initial rate data using the Prism software package (GraphPad Prism version 3.0cx for Macintosh, GraphPad Software, San Diego Calif., USA).
# T1 sequence (Q13535 whole entry): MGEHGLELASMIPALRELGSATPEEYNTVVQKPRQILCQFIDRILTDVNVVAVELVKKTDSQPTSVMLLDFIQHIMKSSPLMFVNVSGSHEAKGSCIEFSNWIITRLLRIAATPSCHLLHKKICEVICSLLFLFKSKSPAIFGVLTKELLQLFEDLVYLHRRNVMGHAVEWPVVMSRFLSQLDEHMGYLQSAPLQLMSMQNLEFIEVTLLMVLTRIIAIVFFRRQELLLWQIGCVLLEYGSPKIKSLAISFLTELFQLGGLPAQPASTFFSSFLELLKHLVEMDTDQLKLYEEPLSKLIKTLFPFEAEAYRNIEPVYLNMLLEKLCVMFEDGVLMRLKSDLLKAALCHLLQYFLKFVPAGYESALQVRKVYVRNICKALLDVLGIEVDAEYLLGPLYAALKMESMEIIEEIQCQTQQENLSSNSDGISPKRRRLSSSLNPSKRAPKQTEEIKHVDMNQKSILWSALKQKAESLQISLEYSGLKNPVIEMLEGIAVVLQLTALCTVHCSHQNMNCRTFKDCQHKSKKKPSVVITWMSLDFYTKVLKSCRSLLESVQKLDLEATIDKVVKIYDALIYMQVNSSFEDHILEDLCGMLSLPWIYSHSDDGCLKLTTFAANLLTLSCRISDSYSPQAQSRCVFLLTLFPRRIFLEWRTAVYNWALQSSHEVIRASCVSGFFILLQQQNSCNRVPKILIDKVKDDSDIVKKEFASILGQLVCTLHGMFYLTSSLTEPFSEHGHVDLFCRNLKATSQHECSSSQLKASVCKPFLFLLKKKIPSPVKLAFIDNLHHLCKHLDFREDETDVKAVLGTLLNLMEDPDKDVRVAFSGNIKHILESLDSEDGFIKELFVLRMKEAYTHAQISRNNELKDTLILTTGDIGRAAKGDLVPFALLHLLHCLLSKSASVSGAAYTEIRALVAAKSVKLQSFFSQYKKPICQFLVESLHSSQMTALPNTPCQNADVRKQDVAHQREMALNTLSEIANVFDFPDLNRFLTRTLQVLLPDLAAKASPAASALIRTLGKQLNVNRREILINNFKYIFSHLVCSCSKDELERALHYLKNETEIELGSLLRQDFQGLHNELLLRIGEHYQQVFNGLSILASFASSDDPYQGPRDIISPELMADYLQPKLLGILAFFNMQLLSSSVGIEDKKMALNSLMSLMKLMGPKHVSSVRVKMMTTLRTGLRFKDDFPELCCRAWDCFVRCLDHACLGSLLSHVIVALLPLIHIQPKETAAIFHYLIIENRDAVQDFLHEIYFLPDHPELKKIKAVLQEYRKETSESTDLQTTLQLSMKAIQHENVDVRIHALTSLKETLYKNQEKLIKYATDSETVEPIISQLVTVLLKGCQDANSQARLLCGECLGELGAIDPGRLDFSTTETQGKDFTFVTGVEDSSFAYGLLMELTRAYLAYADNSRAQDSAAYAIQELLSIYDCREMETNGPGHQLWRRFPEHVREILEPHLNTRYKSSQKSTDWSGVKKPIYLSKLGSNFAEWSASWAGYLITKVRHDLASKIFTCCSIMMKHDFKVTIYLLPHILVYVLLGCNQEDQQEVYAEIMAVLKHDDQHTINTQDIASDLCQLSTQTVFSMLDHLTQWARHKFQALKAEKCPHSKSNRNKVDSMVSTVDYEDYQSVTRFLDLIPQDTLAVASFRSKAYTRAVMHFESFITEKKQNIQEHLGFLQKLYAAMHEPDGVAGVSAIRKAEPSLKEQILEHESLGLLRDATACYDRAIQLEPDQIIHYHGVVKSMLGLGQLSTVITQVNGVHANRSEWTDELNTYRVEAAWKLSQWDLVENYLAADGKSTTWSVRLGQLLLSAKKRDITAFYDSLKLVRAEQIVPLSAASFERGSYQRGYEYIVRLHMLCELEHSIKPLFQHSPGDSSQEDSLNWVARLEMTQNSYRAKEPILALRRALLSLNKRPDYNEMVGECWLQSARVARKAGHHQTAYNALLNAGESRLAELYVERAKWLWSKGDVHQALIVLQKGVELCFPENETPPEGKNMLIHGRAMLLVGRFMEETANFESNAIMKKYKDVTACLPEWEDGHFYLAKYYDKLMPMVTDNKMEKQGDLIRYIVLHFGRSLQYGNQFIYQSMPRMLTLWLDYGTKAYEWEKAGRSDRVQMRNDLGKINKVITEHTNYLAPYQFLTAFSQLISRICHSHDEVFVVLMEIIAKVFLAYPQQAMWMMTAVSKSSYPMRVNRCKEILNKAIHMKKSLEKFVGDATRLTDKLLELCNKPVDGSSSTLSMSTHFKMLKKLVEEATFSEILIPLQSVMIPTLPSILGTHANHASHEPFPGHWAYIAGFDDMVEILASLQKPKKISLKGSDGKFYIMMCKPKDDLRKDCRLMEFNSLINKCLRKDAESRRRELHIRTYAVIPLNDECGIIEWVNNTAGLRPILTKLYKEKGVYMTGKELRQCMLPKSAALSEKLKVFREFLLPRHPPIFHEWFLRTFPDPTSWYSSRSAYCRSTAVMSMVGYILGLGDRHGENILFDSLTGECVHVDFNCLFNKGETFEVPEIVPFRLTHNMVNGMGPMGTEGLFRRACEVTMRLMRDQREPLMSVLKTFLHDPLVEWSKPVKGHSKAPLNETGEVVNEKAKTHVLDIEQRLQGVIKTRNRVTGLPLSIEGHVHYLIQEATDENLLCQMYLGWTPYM
row,SMILES,Ki
1,"CC(=O)NC1CCN(c2cnc(N)c(-c3nc4ccc(C)cc4[nH]3)n2)CC1 [Compound I-43, N-(1-(5-amino-6-(6-methyl-1H-benzo[d]imidazol-2-yl)pyrazin-2-yl)piperidin-4-yl)ethanamide]",100 to 1000 nM
2,"CC(=O)C1(c2ccccc2)CCN(c2cnc(N)c(-c3nc4ccc(C)cc4[nH]3)n2)CC1 [Compound I-44, 1-(1-(5-amino-6-(6-methyl-1H-benzo[d]imidazol-2-yl)pyrazin-2-yl)-4-phenylpiperidin-4-yl)ethanone]",1000 to 10000 nM
3,"Cc1ccc2nc(-c3nc(N4CCN(c5ccccc5F)CC4)cnc3N)[nH]c2c1 [Compound I-45, 5-(4-(2-fluorophenyl)piperazin-1-yl)-3-(6-methyl-1H-benzo[d]imidazol-2-yl)pyrazin-2-amine]",1000 to 10000 nM
4,"Cc1ccc2nc(-c3nc(N4CCN(c5nccs5)CC4)cnc3N)[nH]c2c1 [Compound I-46, 3-(6-methyl-1H-benzo[d]imidazol-2-yl)-5-(4-(thiazol-2-yl)piperazin-1-yl)pyrazin-2-amine]",100 to 1000 nM
5,"Cc1ccc2nc(-c3nc(N4CCN(c5cccc(F)c5)CC4)cnc3N)[nH]c2c1 [Compound I-47, 5-(4-(3-fluorophenyl)piperazin-1-yl)-3-(6-methyl-1H-benzo[d]imidazol-2-yl)pyrazin-2-amine]",1000 to 10000 nM
6,"COc1cccc(N2CCN(c3cnc(N)c(-c4nc5ccc(C)cc5[nH]4)n3)CC2)c1 [Compound I-48, 5-(4-(3-methoxyphenyl)piperazin-1-yl)-3-(6-methyl-1H-benzo[d]imidazol-2-yl)pyrazin-2-amine]",100 to 1000 nM
7,"Cc1ccc2nc(-c3nc(N4CCC(N(C)C)CC4)cnc3N)[nH]c2c1 [Compound I-49, 5-(4-(dimethylamino)piperidin-1-yl)-3-(6-methyl-1H-benzo[d]imidazol-2-yl)pyrazin-2-amine]",1000 to 10000 nM
8,"Cc1ccc2nc(-c3nc(N4CCN(c5ccccc5C#N)CC4)cnc3N)[nH]c2c1 [Compound I-50, 2-(4-(5-amino-6-(6-methyl-1H-benzo[d]imidazol-2-yl)pyrazin-2-yl)piperazin-1-yl)benzonitrile]",1000 to 10000 nM
9,"Cc1ccc2nc(-c3nc(N4CCCC(N(C)C)C4)cnc3N)[nH]c2c1 (stereo not shown) [Compound I-51, 5-(3-(dimethylamino)piperidin-1-yl)-3-(6-methyl-1H-benzo[d]imidazol-2-yl)pyrazin-2-amine]",1000 to 10000 nM
10,"Cc1ccc2nc(-c3nc(N4CCN(c5ncccc5C(F)(F)F)CC4)cnc3N)[nH]c2c1 [Compound I-52, 3-(6-methyl-1H-benzo[d]imidazol-2-yl)-5-(4-(3-(trifluoromethyl)pyridin-2-yl)piperazin-1-yl)pyrazin-2-amine]",1000 to 10000 nM
11,"Cc1ccc2nc(-c3nc(N4CCN(C(=O)c5ccco5)CC4)cnc3N)[nH]c2c1 [Compound I-53, (4-(5-amino-6-(6-methyl-1H-benzo[d]imidazol-2-yl)pyrazin-2-yl)piperazin-1-yl)(furan-2-yl)methanone]",100 to 1000 nM
12,"CCS(=O)(=O)N1CCN(c2cnc(N)c(C(=O)Nc3ccccn3)n2)CC1 [Compound I-55, 3-amino-6-(4-(ethylsulfonyl)piperazin-1-yl)-N-(pyridin-2-yl)pyrazine-2-carboxamide]",100 to 1000 nM
13,"CCS(=O)(=O)N1CCN(c2cnc(N)c(-c3nc4cccnc4[nH]3)n2)CC1 [Compound I-56, 5-(4-(ethylsulfonyl)piperazin-1-yl)-3-(3H-imidazo[4,5-b]pyridin-2-yl)pyrazin-2-amine]",100 to 1000 nM
14,"CCS(=O)(=O)N1CCN(c2cnc(N)c(-c3nnc(-c4cccc(N)c4)[nH]3)n2)CC1 [Compound I-57, 3-(5-(3-aminophenyl)-4H-1,2,4-triazol-3-yl)-5-(4-(ethylsulfonyl)piperazin-1-yl)pyrazin-2-amine]",100 to 1000 nM
15,"CCS(=O)(=O)N1CCN(c2cnc(N)c(-c3cc4ccccc4s3)n2)CC1 [Compound I-59, 3-(benzo[b]thiophen-2-yl)-5-(4-(ethylsulfonyl)piperazin-1-yl)pyrazin-2-amine]",100 to 1000 nM
16,"CCS(=O)(=O)N1CCN(c2cnc(N)c(-c3cc4ccccc4[nH]3)n2)CC1 [Compound I-61, 5-(4-(ethylsulfonyl)piperazin-1-yl)-3-(1H-indol-2-yl)pyrazin-2-amine]",1000 to 10000 nM
17,"CCS(=O)(=O)N1CCN(c2cnc(N)c(-c3cn4ccsc4n3)n2)CC1 [Compound I-62, 5-(4-(ethylsulfonyl)piperazin-1-yl)-3-(imidazo[2,1-b]thiazol-6-yl)pyrazin-2-amine]",1000 to 10000 nM
18,"Cc1ccc2nc(-c3nc(N4CCC(C(=O)c5ccccc5)CC4)cnc3N)[nH]c2c1 [Compound I-63, (1-(5-amino-6-(6-methyl-1H-benzo[d]imidazol-2-yl)pyrazin-2-yl)piperidin-4-yl)(phenyl)methanone]",100 to 1000 nM
19,"Cc1ccc2nc(-c3nc(N4CCN(c5ccccn5)CC4)cnc3N)[nH]c2c1 [Compound I-64, 3-(6-methyl-1H-benzo[d]imidazol-2-yl)-5-(4-(pyridin-2-yl)piperazin-1-yl)pyrazin-2-amine]",1000 to 10000 nM
20,"Cc1ccc2nc(-c3nc(N4CCNC(=O)CC4)cnc3N)[nH]c2c1 [Compound I-65, 1-(5-amino-6-(6-methyl-1H-benzo[d]imidazol-2-yl)pyrazin-2-yl)-1,4-diazepan-5-one]",1000 to 10000 nM
21,"Nc1ncc(C2=CCNCC2)nc1-c1nc2ccccc2[nH]1 [Compound I-66, 3-(1H-benzo[d]imidazol-2-yl)-5-(1,2,3,6-tetrahydropyridin-4-yl)pyrazin-2-amine]",100 to 1000 nM
22,"CC(C)C(=O)N1CC=C(c2cnc(N)c(-c3nc4cccnc4[nH]3)n2)CC1 [Compound I-67, 1-(4-(5-amino-6-(3H-imidazo[4,5-b]pyridin-2-yl)pyrazin-2-yl)-5,6-dihydropyridin-1(2H)-yl)-2-methylpropan-1-one]",< 100 nM
23,"CC(C)C(=O)N1CCN(c2cnc(N)c(C(=O)Nc3ccccn3)n2)CC1 [Compound I-68, 3-amino-6-(4-(2-methylpropanoyl)piperazin-1-yl)-N-(pyridin-2-yl)pyrazine-2-carboxamide]",100 to 1000 nM
24,"CCS(=O)(=O)N1CCN(c2cnc(N)c(-c3nnc(Nc4ccccc4)o3)n2)CC1 [Compound I-69, 5-(3-amino-6-(4-(ethylsulfonyl)piperazin-1-yl)pyrazin-2-yl)-N-phenyl-1,3,4-oxadiazol-2-amine]",100 to 1000 nM
25,"CNC(=O)[C@H]1CCN(c2cnc(N)c(-c3nc4ccc(C)cc4[nH]3)n2)C1 [Compound I-70, (S)-1-(5-amino-6-(6-methyl-1H-benzo[d]imidazol-2-yl)pyrazin-2-yl)-N-methylpyrrolidine-3-carboxamide]",1000 to 10000 nM
26,"CCS(=O)(=O)N1CC=C(c2cnc(N)c(-c3nc4ccccc4[nH]3)n2)CC1 [Compound I-71, 3-(1H-benzo[d]imidazol-2-yl)-5-(1-(ethylsulfonyl)-1,2,3,6-tetrahydropyridin-4-yl)pyrazin-2-amine]",< 100 nM
27,"CCS(=O)(=O)N1CCN(c2cnc(N)c(-c3nnc(C4CCCCC4)o3)n2)CC1 [Compound I-72, 3-(5-cyclohexyl-1,3,4-oxadiazol-2-yl)-5-(4-(ethylsulfonyl)piperazin-1-yl)pyrazin-2-amine]",1000 to 10000 nM
28,"CCS(=O)(=O)N1CCN(c2cnc(N)c(C(=O)/C=C/c3ccccc3)n2)CC1 [Compound I-73, (E)-1-(3-amino-6-(4-(ethylsulfonyl)piperazin-1-yl)pyrazin-2-yl)-3-phenylprop-2-en-1-one]",1000 to 10000 nM
